Source: patent US12390456B2, “Pridopidine for treating Huntington's disease” (PRILENIA NEUROTHERAPEUTICS LTD., priority 2013, dated 2025)
Like-named read-outs stand apart in the source and are kept apart here.

Assays:
[1] = tested on: patients with HD; settings: cited from earlier work
[2] = tested on: patients with HD
Description: Study ACR16C007 explored the efficacy of 44 mg pridopidine once daily (qd) in 58 patients.

[3] = tested on: patients with HD; settings: 12 weeks; 67.5 mg, 90 mg and 112.5 mg bid
Description: The primary efficacy variable and endpoint for this study is change from baseline in the UHDRS-TMS (defined as the sum of all UHDRS motor domains ratings) at Week 12.
The change from baseline in TMS is analyzed using a Repeated Measures model (SAS® MIXED procedure with REPEATED sub-command). The model includes the following fixed effects: categorical week in trial by treatment interaction, center, neuroleptic use or no use and baseline TMS score. The unstructured covariance matrix for repeated observations within patients is used.

[4] = tested on: patients with HD; settings: 26 weeks; 67.5 mg, 90 mg and 112.5 mg bid
From the text: The model includes the following fixed effects: categorical week in study by treatment interaction, center, neuroleptic use or no use, and baseline UHDRS-TMS score. The unstructured covariance matrix for repeated observations within patients is used.

[5] = tested on: patients with HD; settings: 26 weeks; 67.5 mg, 90 mg and 112.5 mg bid; remark: listed apart in the source
From the text: The Modified Physical Performance Test (mPPT) is used instead of the Physical Performance Test (PPT). The Walk-12 scale in used instead of the Multiple Sclerosis Walking Scale (MSWS).

Compound	effect on motor components other than chorea ([1]; in vivo)	improvement on the UHDRS-TMS ([1]; p=0.075, 45 to 47 points at baseline)	effect on mMS ([2]; 45 mg bid, HART and MermaiHD)	improvement in UHDRS-TMS relative to placebo ([2]; 45 mg bid, MermaiHD and HART)	findings on the TMS ([2]; HART and MermaiHD)	efficacy in treating motor symptoms in HD (mMS and TMS) ([2]; HART study, 10, 22.5 and 45 mg bid, 12 weeks)	changes from baseline in TMS [3]	changes from baseline in UHDRS-TMS [4]	changes from baseline in UHDRS-TMS [5]
COc1cc2c(cc1OC)C1CC(=O)C(CC(C)C)CN1CC2 (stereo not drawn) [tetrabenazine]	no significant effect	3.3 points							
CCCN1CCC(c2cccc(S(C)(=O)=O)c2)CC1 [pridopidine, 4-[3-(methylsulfonyl)phenyl]-1-propyl-piperidine]			did not reach the pre-specified significance criteria	approximately 3 points	statistically significant findings	dose-dependent efficacy	Statistically significant changes	Statistically significant changes	Statistically significant changes
